The target in one experiment is T1, HiBit-BRM fusion protein (Homo sapiens, UniProt P51531).
T1 construct: expressed in transfected cells
Briefly: HiBiT-BRM cell-based degradation assay (Nano-Glo HiBiT Lytic Detection). Particulars: stable HeLa cell line expressing HiBiT-BRM, 24 h incubation; for BRM HiBit Degradation Maximum (%): top dose 30 μM; for DC50: read-out: BRM HiBit Degradation IC50. A digest of the protocol:
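Percent BRM loss was derived from HiBiT luminescence relative to DMSO-treated cells and cells given 2 μM of a known BRM/BRG1 degrader. Treatment lasted 24 h in HiBiT-BRM HeLa cells, with a top final concentration of 30 μM.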
On the technique in general: The HiBiT peptide binds its large partner to form an active luciferase.

Experiment [1] deals with T2, HiBit-BRG1 fusion protein (Homo sapiens, UniProt P51532).
T2 construct: expressed in transfected cells
T2 sequence (P51532 whole entry, the tested form may be a part): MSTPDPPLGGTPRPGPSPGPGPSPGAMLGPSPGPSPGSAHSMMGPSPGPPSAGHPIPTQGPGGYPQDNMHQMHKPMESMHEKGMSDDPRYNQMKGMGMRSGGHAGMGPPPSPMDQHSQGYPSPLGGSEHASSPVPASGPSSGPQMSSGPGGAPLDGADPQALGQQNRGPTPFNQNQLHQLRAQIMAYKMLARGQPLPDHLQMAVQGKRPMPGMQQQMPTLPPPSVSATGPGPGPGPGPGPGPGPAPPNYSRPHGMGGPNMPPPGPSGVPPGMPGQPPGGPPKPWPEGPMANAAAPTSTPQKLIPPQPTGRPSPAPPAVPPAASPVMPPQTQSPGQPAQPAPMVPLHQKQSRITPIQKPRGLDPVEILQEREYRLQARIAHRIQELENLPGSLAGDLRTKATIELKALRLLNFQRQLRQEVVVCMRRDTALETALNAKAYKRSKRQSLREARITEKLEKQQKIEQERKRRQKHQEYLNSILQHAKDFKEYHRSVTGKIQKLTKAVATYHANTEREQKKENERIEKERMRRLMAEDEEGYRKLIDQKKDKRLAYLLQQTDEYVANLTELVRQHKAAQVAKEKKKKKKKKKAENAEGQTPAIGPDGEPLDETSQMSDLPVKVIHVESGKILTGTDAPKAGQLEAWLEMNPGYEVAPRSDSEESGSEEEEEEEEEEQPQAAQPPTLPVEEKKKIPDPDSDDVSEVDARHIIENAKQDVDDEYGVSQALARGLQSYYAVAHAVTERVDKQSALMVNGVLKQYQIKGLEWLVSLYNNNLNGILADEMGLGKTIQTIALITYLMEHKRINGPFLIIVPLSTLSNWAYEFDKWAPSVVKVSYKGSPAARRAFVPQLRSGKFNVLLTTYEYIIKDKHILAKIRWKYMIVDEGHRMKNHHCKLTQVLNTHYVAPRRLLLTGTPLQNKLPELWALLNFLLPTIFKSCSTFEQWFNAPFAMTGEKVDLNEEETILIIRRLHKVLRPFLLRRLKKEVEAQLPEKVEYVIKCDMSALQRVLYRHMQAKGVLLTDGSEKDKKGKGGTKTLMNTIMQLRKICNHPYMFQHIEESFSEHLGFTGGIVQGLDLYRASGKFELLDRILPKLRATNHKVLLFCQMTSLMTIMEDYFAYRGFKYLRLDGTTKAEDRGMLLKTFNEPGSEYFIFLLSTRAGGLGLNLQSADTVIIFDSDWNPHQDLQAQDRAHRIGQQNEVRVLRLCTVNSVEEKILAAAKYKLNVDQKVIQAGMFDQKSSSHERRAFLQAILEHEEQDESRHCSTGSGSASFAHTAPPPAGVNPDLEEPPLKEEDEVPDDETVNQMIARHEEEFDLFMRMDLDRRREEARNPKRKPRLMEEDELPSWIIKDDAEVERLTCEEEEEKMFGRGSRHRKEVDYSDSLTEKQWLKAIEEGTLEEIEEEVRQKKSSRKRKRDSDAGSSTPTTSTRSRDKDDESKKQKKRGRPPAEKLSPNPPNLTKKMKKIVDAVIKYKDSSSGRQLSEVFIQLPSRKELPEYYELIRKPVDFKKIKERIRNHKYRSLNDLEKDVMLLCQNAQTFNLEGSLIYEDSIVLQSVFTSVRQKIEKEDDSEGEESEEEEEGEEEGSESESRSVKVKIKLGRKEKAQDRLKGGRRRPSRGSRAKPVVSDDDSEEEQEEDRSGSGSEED
Kind of experiment: HiBiT-BRG1 cell-based degradation assay (Nano-Glo HiBiT Lytic Detection). Particulars: stable HeLa cell line expressing HiBit-BRG1 and LgBit, 24 h incubation; for Dmax: top dose 30 μM, read-out: BRG1 HiBit Degradation Maximum (%); for DC50: read-out: BRMG1 HiBit Degradation IC50. A digest of the protocol:
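Degradation was scored from HiBiT lytic luminescence, scaled between DMSO-treated wells and wells given 2 μM of a standard BRM/BRG1 degrader. Cells were a stable HeLa HiBiT-BRG1/LgBiT line dosed for 24 h, ten concentrations in 3-fold steps from 30 μM, in duplicate.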

T1 sequence (P51531 whole entry, the tested form may be a part): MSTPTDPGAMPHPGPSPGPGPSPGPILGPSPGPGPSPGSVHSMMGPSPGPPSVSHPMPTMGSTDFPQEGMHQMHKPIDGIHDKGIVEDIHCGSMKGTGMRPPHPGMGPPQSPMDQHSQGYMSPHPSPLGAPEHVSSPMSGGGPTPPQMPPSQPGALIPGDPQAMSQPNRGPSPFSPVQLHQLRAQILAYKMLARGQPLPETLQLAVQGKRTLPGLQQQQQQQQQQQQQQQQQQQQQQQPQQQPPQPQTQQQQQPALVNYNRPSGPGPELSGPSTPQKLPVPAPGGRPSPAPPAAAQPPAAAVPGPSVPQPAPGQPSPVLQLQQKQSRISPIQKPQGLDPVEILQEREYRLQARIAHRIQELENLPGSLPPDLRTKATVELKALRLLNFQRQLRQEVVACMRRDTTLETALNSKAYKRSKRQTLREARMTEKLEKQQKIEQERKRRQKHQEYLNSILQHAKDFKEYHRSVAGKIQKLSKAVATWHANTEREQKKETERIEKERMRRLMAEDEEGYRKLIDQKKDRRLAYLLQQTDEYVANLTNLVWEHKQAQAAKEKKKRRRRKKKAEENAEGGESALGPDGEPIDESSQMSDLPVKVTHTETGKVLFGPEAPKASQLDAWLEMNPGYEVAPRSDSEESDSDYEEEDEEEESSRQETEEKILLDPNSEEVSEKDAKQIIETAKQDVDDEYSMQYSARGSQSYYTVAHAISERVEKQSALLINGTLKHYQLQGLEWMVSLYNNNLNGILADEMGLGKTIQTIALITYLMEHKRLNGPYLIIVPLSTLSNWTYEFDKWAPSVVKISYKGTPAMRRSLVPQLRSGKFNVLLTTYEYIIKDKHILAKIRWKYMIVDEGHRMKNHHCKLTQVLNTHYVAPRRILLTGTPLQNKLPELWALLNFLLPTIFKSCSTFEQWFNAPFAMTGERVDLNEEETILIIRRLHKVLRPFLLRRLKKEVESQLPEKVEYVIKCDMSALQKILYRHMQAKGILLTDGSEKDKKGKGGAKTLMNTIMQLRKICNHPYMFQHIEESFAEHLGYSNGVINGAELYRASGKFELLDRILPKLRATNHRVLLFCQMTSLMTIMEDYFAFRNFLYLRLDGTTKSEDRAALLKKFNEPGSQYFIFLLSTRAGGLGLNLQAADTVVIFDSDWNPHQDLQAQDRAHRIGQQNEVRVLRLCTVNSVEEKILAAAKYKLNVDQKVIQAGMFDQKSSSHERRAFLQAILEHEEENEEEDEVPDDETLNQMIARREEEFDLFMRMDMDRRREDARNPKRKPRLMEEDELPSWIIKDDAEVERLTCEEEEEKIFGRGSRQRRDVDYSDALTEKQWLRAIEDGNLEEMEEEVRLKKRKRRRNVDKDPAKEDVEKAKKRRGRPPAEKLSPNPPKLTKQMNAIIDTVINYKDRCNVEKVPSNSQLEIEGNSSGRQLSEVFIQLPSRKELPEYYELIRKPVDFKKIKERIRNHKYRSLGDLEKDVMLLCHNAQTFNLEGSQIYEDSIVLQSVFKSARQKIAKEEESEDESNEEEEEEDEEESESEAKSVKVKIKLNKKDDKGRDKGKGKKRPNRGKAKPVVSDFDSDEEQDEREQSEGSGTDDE

On to `Cc1ncsc1-c1ccc([C@H](C)NC(=O)[C@@H]2C[C@@H](O)CN2C(=O)[C@@H](c2cc(OCCCN3CCC(c4sc5nnc(-c6ccccc6O)cc5c4C)CC3)no2)C(C)C)cc1` [Compound 95, (2S,4R)-4-hydroxy-1-((R)-2-(3-(3-(4-(3-(2-hydroxyphenyl)-5-methylthieno[2,3-c]pyridazin-6-yl)piperidin-1-yl)propoxy)isoxazol-5-yl)-3-methylbutanoyl)-N-((S)-1-(4-(4-methylthiazol-5-yl)phenyl)ethyl)pyrrolidine-2-carboxamide], for which, at HiBit-BRM fusion protein, the “BRM HiBit Degradation Maximum (%)” value was “A (“A” indicates maximum degradation ≥ 75%)” and the DC50 was less than 10 nM. Moreover, in experiment [1], the Dmax is less than 50% and the DC50 is not below 1000 nM.

`Cc1ncsc1-c1ccc([C@H](C)NC(=O)[C@@H]2C[C@@H](O)CN2C(=O)[C@@H](c2cc(N3CCC(N4CCC(c5sc6nnc(-c7ccccc7O)cc6c5C)CC4)CC3)no2)C(C)C)cc1` [Compound 96, (2S,4R)-4-hydroxy-1-((R)-2-(3-(4-(3-(2-hydroxyphenyl)-5-methylthieno[2,3-c]pyridazin-6-yl)-[1,4'-bipiperidin]-1'-yl)isoxazol-5-yl)-3-methylbutanoyl)-N-((S)-1-(4-(4-methylthiazol-5-yl)phenyl)ethyl)pyrrolidine-2-carboxamide]: on HiBit-BRM fusion protein, the “BRM HiBit Degradation Maximum (%)” value was “A (“A” indicates maximum degradation ≥ 75%)” and the DC50 was less than 10 nM. Besides, in experiment [1], the Dmax is less than 50% and the DC50 was not below 1000 nM.

With `Cc1ncsc1-c1ccc([C@H](C)NC(=O)[C@@H]2C[C@@H](O)CN2C(=O)[C@@H](c2cc(OCCN3CCC(c4cc5nnc(-c6ccccc6O)cc5s4)CC3)no2)C(C)C)cc1` [Compound 97, (2S,4R)-4-hydroxy-1-((R)-2-(3-(2-(4-(3-(2-hydroxyphenyl)thieno[3,2-c]pyridazin-6-yl)piperidin-1-yl)ethoxy)isoxazol-5-yl)-3-methylbutanoyl)-N-((S)-1-(4-(4-methylthiazol-5-yl)phenyl)ethyl)pyrrolidine-2-carboxamide], on HiBit-BRM fusion protein, the “BRM HiBit Degradation Maximum (%)” value was “A (“A” indicates maximum degradation ≥ 75%)” and the DC50 is less than 10 nM. In experiment [1], the Dmax was less than 50% and the DC50 was not below 1000 nM.

With `Cc1ncsc1-c1ccc([C@H](C)NC(=O)[C@@H]2C[C@@H](O)CN2C(=O)[C@@H](c2cc(N3CCC(C(=O)N4CCC(c5sc6nnc(-c7ccccc7O)cc6c5C)CC4)CC3)no2)C(C)C)cc1` [Compound 98, (2S,4R)-4-hydroxy-1-((R)-2-(3-(4-(4-(3-(2-hydroxyphenyl)-5-methylthieno[2,3-c]pyridazin-6-yl)piperidine-1-carbonyl)piperidin-1-yl)isoxazol-5-yl)-3-methylbutanoyl)-N-((S)-1-(4-(4-methylthiazol-5-yl)phenyl)ethyl)pyrrolidine-2-carboxamide], on HiBit-BRM fusion protein, the “BRM HiBit Degradation Maximum (%)” value is reported as “A (“A” indicates maximum degradation ≥ 75%)” and the DC50 was less than 10 nM. Also, in experiment [1], the Dmax is not below 50% and the DC50 is not below 1000 nM.

Take `Cc1ncsc1-c1ccc([C@H](C)NC(=O)[C@@H]2C[C@@H](O)CN2C(=O)[C@@H](c2cc(N3CCC(C(=O)N4CC(c5cc6nnc(-c7ccccc7O)cc6s5)C4)CC3)no2)C(C)C)cc1` [Compound 99, (2S,4R)-4-hydroxy-1-((R)-2-(3-(4-(3-(3-(2-hydroxyphenyl)thieno[3,2-c]pyridazin-6-yl)azetidine-1-carbonyl)piperidin-1-yl)isoxazol-5-yl)-3-methylbutanoyl)-N-((S)-1-(4-(4-methylthiazol-5-yl)phenyl)ethyl)pyrrolidine-2-carboxamide]: on HiBit-BRM fusion protein, the “BRM HiBit Degradation Maximum (%)” value is “A (“A” indicates maximum degradation ≥ 75%)” and the DC50 was not below 10 nM. Also, in experiment [1], the Dmax is less than 50% and the DC50 is not below 1000 nM.

With `Cc1ncsc1-c1ccc([C@H](C)NC(=O)[C@@H]2C[C@@H](O)CN2C(=O)[C@@H](c2cc(OCCN3CCC(N4CC(c5sc6nnc(-c7ccccc7O)cc6c5C)C4)CC3)no2)C(C)C)cc1` [Compound 100, (2S,4R)-4-hydroxy-1-((R)-2-(3-(2-(4-(3-(3-(2-hydroxyphenyl)-5-methylthieno[2,3-c]pyridazin-6-yl)azetidin-1-yl)piperidin-1-yl)ethoxy)isoxazol-5-yl)-3-methylbutanoyl)-N-((S)-1-(4-(4-methylthiazol-5-yl)phenyl)ethyl)pyrrolidine-2-carboxamide], on HiBit-BRM fusion protein, the “BRM HiBit Degradation Maximum (%)” value is recorded as “A (“A” indicates maximum degradation ≥ 75%)” and the DC50 is not below 10 nM. Moreover, in experiment [1], the Dmax was less than 50% and the DC50 was not below 1000 nM.

Consider `Cc1ncsc1-c1ccc([C@H](C)NC(=O)[C@@H]2C[C@@H](O)CN2C(=O)[C@@H](c2cc(OCCN3CCC(c4csc5nnc(-c6ccccc6O)cc45)CC3)no2)C(C)C)cc1` [Compound 101, (2S,4R)-4-hydroxy-1-((R)-2-(3-(2-(4-(3-(2-hydroxyphenyl)thieno[2,3-c]pyridazin-5-yl)piperidin-1-yl)ethoxy)isoxazol-5-yl)-3-methylbutanoyl)-N-((S)-1-(4-(4-methylthiazol-5-yl)phenyl)ethyl)pyrrolidine-2-carboxamide], for which, at HiBit-BRM fusion protein, the “BRM HiBit Degradation Maximum (%)” value is “C (“C” indicates maximum degradation < 50%)” and the DC50 was not below 1000 nM. In experiment [1], the Dmax is less than 50% and the DC50 is not below 1000 nM.

`Cc1ncsc1-c1ccc([C@H](C)NC(=O)[C@@H]2C[C@@H](O)CN2C(=O)[C@@H](c2cc(OCCN3CC(c4csc5nnc(-c6ccccc6O)cc45)C3)no2)C(C)C)cc1` [Compound 102, (2S,4R)-4-hydroxy-1-((R)-2-(3-(2-(3-(3-(2-hydroxyphenyl)thieno[2,3-c]pyridazin-5-yl)azetidin-1-yl)ethoxy)isoxazol-5-yl)-3-methylbutanoyl)-N-((S)-1-(4-(4-methylthiazol-5-yl)phenyl)ethyl)pyrrolidine-2-carboxamide]: on HiBit-BRM fusion protein, the “BRM HiBit Degradation Maximum (%)” value is “C (“C” indicates maximum degradation < 50%)” and the DC50 was not below 1000 nM. Also, in experiment [1], the Dmax was less than 50% and the DC50 is not below 1000 nM.

Consider `Cc1ncsc1-c1ccc([C@H](C)NC(=O)[C@@H]2C[C@@H](O)CN2C(=O)[C@@H](c2cc(N3CCC(CN4CC(c5cc6nnc(-c7ccccc7O)cc6s5)C4)CC3)no2)C(C)C)cc1` [Compound 103, (2S,4R)-4-hydroxy-1-((R)-2-(3-(4-((3-(3-(2-hydroxyphenyl)thieno[3,2-c]pyridazin-6-yl)azetidin-1-yl)methyl)piperidin-1-yl)isoxazol-5-yl)-3-methylbutanoyl)-N-((S)-1-(4-(4-methylthiazol-5-yl)phenyl)ethyl)pyrrolidine-2-carboxamide], for which, at HiBit-BRM fusion protein, the “BRM HiBit Degradation Maximum (%)” value was “A (“A” indicates maximum degradation ≥ 75%)” and the DC50 is not below 10 nM. Moreover, in experiment [1], the Dmax is less than 50% and the DC50 is not below 1000 nM.

Regarding `Cc1ncsc1-c1ccc([C@H](C)NC(=O)[C@@H]2C[C@@H](O)CN2C(=O)[C@@H](c2cc(OCCCN3CC(c4cc5nnc(-c6ccccc6O)cc5s4)C3)no2)C(C)C)cc1` [Compound 104, (2S,4R)-4-hydroxy-1-((R)-2-(3-(3-(3-(3-(2-hydroxyphenyl)thieno[3,2-c]pyridazin-6-yl)azetidin-1-yl)propoxy)isoxazol-5-yl)-3-methylbutanoyl)-N-((S)-1-(4-(4-methylthiazol-5-yl)phenyl)ethyl)pyrrolidine-2-carboxamide], on HiBit-BRM fusion protein, the “BRM HiBit Degradation Maximum (%)” value is “B (“B” indicates maximum degradation ≥ 50%)” and the DC50 is not below 10 nM. For the same molecule, in experiment [1], the Dmax was less than 50% and the DC50 is not below 1000 nM.

On to `Cc1ncsc1-c1ccc([C@H](C)NC(=O)[C@@H]2C[C@@H](O)CN2C(=O)[C@@H](c2cc(N3CCC(N4CC(c5cc6nnc(-c7ccccc7O)cc6s5)C4)CC3)no2)C(C)C)cc1` [Compound 105, (2S,4R)-4-hydroxy-1-((R)-2-(3-(4-(3-(3-(2-hydroxyphenyl)thieno[3,2-c]pyridazin-6-yl)azetidin-1-yl)piperidin-1-yl)isoxazol-5-yl)-3-methylbutanoyl)-N-((S)-1-(4-(4-methylthiazol-5-yl)phenyl)ethyl)pyrrolidine-2-carboxamide], for which, at HiBit-BRM fusion protein, the “BRM HiBit Degradation Maximum (%)” value is “A (“A” indicates maximum degradation ≥ 75%)” and the DC50 was less than 10 nM. Further, in experiment [1], the Dmax is less than 50% and the DC50 is not below 1000 nM.

Take `Cc1ncsc1-c1ccc([C@H](C)NC(=O)[C@@H]2C[C@@H](O)CN2C(=O)[C@@H](c2cc(OCC(=O)N3CC(c4cc5nnc(-c6ccccc6O)cc5s4)C3)no2)C(C)C)cc1` [Compound 106, (2S,4R)-4-hydroxy-1-((R)-2-(3-(2-(3-(3-(2-hydroxyphenyl)thieno[3,2-c]pyridazin-6-yl)azetidin-1-yl)-2-oxoethoxy)isoxazol-5-yl)-3-methylbutanoyl)-N-((S)-1-(4-(4-methylthiazol-5-yl)phenyl)ethyl)pyrrolidine-2-carboxamide]: on HiBit-BRM fusion protein, the “BRM HiBit Degradation Maximum (%)” value is listed as “C (“C” indicates maximum degradation < 50%)” and the DC50 was not below 1000 nM. For the same molecule, in experiment [1], the Dmax is not below 50% and the DC50 was not below 1000 nM.

Source of the values: patent US20240376121A1, “COMPOUNDS AND USES THEREOF” (Foghorn Therapeutics Inc., priority 2021, published 2024).
